Test results published in patent US20230286970A1, “NOVEL OXADIAZOLE-BASED SELECTIVE HDAC6 INHIBITORS” (ITALFARMACO S.P.A., priority 2020, published 2023).

Legend:
[1] = biological target: recombinant human HDAC6 (Homo sapiens (Human), UniProt Q9UBN7); experiment: Enzymatic screening, HDAC6 inhibition (fluorogenic FdL_G substrate); type: biochemical
Experimental: (§1) For each test compound, 100× concentrated DMSO solutions at 8 doses were prepared and then diluted in assay buffer (25 mM Tris-HCl, pH 8, 130 mM NaCl, 0.05% Tween-20, 10% Glycerol) to obtain 5× concentrated solutions in relation to the final concentrations (typical final concentration range—6.4-200000 nM or 0.18-50000 nM, final DMSO content—1%). Then 10 μL solution of each test compound concentration were placed on a 96-well plate in triplicate and 15 μL of 3.33× concentrated enzyme solution in the assay buffer containing 3.33× concentrated BSA (final BSA concentration—2 mg/mL for HDAC4, HDAC5 and HDAC9 or 1 mg/mL for other isoforms) and in the case of HDAC6-3.33× concentrated TCEP (final TCEP concentration—200 μM) were added to each well. After a period of preincubation (incubation times and temperatures vary for different isoforms and are shown in table 1) 25 μL of solution containing the substrate were added. As substrate, FLUOR DE LYS® deacetylase substrate (Enzo Life Sciences, cat: BML-KI104, FdL), FLUOR DE LYS®-Green substrate (Enzo Life Sciences, cat: BML-KI572, FdL_G) or Boc-Lys(Tfa)-AMC (Bachem, cat: 4060676.005, Tfal)—2× concentrated solution in assay buffer were used. Following a reaction period (reaction times and temperatures vary for different isoforms and are reported in Table 1), 50 μL of the development solution consisting of concentrate FLUOR DE LYS® developer I (Enzo Life Sciences, ca: BML-KI105), diluted 200 times in buffer (50 mM Tris-HCl, pH 8, 137 mM NaCl, 2.7 mM KCl, 1 mM MgCl2) plus 2 μM TSA was added and, after 25 minutes at room temperature in the dark, using the Victor 1420 Multilabel Counter Perkin Elmer Wallac instrument, the fluorescence reading was carried out.

[2] = biological target: recombinant human HDAC1 (Homo sapiens (Human), UniProt Q13547); experiment: Enzymatic screening, HDAC1 inhibition (fluorogenic FdL_G substrate); type: biochemical
recombinant human HDAC1, sequence (Q13547 whole entry): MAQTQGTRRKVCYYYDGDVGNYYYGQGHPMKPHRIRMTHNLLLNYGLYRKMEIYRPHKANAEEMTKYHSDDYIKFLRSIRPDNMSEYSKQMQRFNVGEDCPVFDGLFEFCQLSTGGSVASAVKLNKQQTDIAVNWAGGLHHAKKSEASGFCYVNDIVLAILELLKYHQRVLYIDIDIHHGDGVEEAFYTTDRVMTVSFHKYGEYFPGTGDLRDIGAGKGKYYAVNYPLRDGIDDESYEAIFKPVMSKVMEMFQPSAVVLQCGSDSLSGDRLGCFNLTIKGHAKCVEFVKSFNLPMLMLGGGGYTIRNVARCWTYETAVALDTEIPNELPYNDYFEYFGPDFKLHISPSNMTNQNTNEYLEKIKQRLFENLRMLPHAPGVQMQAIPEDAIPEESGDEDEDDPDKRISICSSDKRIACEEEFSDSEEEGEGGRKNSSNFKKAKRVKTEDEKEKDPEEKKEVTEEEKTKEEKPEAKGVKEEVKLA
Experimental: as §1

recombinant human HDAC6, sequence (Q9UBN7 whole entry, canonical isoform): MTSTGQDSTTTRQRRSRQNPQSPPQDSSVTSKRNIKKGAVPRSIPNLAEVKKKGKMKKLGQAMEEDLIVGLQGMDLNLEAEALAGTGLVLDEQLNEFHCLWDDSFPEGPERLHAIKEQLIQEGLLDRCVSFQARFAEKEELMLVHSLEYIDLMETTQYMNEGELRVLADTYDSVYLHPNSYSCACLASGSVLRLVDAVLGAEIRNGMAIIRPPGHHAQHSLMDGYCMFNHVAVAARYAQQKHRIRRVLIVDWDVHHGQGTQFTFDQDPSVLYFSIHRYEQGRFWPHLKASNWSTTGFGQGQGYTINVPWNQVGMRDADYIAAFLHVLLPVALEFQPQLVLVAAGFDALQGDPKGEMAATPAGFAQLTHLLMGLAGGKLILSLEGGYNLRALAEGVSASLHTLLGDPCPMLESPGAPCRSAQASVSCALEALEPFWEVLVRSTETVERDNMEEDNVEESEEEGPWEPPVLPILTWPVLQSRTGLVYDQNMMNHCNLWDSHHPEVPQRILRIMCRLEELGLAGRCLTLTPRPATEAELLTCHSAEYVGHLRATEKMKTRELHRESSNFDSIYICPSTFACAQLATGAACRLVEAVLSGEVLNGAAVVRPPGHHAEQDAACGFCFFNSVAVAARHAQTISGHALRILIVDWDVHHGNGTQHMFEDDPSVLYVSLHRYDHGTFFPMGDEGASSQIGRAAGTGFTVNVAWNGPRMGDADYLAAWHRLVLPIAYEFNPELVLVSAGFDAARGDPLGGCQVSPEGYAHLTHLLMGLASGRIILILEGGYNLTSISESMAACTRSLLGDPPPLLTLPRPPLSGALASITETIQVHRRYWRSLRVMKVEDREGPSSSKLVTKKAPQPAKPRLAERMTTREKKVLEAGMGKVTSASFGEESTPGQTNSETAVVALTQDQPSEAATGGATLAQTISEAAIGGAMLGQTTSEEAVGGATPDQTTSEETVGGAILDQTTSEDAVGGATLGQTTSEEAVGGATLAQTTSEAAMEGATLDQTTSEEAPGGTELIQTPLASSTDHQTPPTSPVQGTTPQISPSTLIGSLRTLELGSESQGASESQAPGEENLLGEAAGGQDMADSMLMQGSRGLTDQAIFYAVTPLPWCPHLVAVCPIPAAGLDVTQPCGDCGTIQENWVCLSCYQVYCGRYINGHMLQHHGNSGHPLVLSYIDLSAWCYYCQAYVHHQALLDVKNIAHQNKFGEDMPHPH

SMILES | IC50 [1] | IC50 [2]
Nc1nc2ccc(-n3cc(Cc4ccc(-c5nnc(C(F)F)o5)cc4)nn3)cc2s1 [compd. 377, 6-[4-[[4-[5-(difluoromethyl)-1,3,4-oxadiazol-2-yl]phenyl]methyl]triazol-1-yl]-1,3-benzothiazol-2-amine] | 0.37 µM | > 1000 µM
Nc1ccc(-c2noc(Cc3ccc(-c4nnc(C(F)F)o4)cc3F)n2)cc1 [compd. 419, 4-(5-(4-(5-(difluoromethyl)-1,3,4-oxadiazol-2-yl)-2-fluorobenzyl)-1,2,4-oxadiazol-3-yl)aniline] | 0.064 µM | > 1000 µM
O=C1Nc2ccc(-c3cn(Cc4ccc(-c5nnc(C(F)F)o5)cc4)nn3)cc2C12CCCC2 [compound 61, 5′-(1-(4-(5-(difluoromethyl)-1,3,4-oxadiazol-2-yl)benzyl)-1H-1,2,3-triazol-4-yl)spiro[cyclopentane-1,3′-indolin]-2′-one] | 0.027 µM | > 200 µM
CN1CCN(C(=O)Nc2cccc(-c3cn(Cc4c(F)cc(-c5nnc(C(F)F)o5)cc4F)nn3)c2)CC1 [compound 63, N-(3-(1-(4-(5-(difluoromethyl)-1,3,4-oxadiazol-2-yl)-2,6-difluorobenzyl)-1H-1,2,3-triazol-4-yl)phenyl)-4-methylpiperazine-1-carboxamide] | 0.028 µM | > 200 µM
CC(c1ccc(-c2nnc(C(F)F)o2)cn1)n1cc(-c2cccc(NC(=O)N3CCOCC3)c2)nn1 (stereo not shown) [compound 66, N-(3-(1-(1-(5-(5-(difluoromethyl)-1,3,4-oxadiazol-2-yl)pyridin-2-yl)ethyl)-1H-1,2,3-triazol-4-yl)phenyl)morpholine-4-carboxamide] | 0.028 µM | > 200 µM
O=C(Nc1ccc(-c2nnn(Cc3ncc(-c4nnc(C(F)F)o4)cn3)n2)cn1)C(F)F [compound 68, N-(5-(2-((5-(5-(difluoromethyl)-1,3,4-oxadiazol-2-yl)pyrimidin-2-yl)methyl)-2H-tetrazol-5-yl)pyridin-2-yl)-2,2-difluoroacetamide] | 0.033 µM | > 200 µM
CC(=O)Nc1cccc(-c2cn(Cc3c(F)cc(-c4nnc(C(F)F)o4)cc3F)nn2)c1 [compound 70, N-(3-(1-(4-(5-(difluoromethyl)-1,3,4-oxadiazol-2-yl)-2,6-difluorobenzyl)-1H-1,2,3-triazol-4-yl)phenyl)acetamide] | 0.034 µM | > 200 µM
O=C(Nc1cccc(-c2nnn(Cc3ccc(-c4nnc(C(F)F)o4)cc3)n2)c1)N1CCOCC1 [compound 71, N-(3-(2-(4-(5-(difluoromethyl)-1,3,4-oxadiazol-2-yl)benzyl)-2H-tetrazol-5-yl)phenyl)morpholine-4-carboxamide] | 0.03 µM | > 200 µM
NC(=O)c1cc(-c2nnn(Cc3ccc(-c4nnc(C(F)F)o4)cc3)n2)ccc1N [compound 72, 2-amino-5-(2-(4-(5-(difluoromethyl)-1,3,4-oxadiazol-2-yl)benzyl)-2H-tetrazol-5-yl)benzamide] | 0.03 µM | > 200 µM
Nc1cncc(-c2cn(Cc3c(F)cc(-c4nnc(C(F)F)o4)cc3F)nn2)c1 [compound 73, 5-(1-(4-(5-(difluoromethyl)-1,3,4-oxadiazol-2-yl)-2,6-difluorobenzyl)-1H-1,2,3-triazol-4-yl)pyridin-3-amine] | 0.031 µM | > 200 µM

Stronger by IC50 [1], values ahead:

IC50 [1] | IC50 [2] | SMILES
0.025 µM | > 200 µM | CN1CCN(c2cccc(-c3nnn(Cc4ccc(-c5nnc(C(F)F)o5)cc4)n3)c2)CC1 [compound 58, 2-(difluoromethyl)-5-(4-((5-(3-(4-methylpiperazin-1-yl)phenyl)-2H-tetrazol-2-yl)methyl)phenyl)-1,3,4-oxadiazole]
0.023 µM | > 200 µM | NC(=O)c1cccc(-c2nnn(Cc3c(F)cc(-c4nnc(C(F)F)o4)cc3F)n2)c1 [compound 54, 3-(2-(4-(5-(difluoromethyl)-1,3,4-oxadiazol-2-yl)-2,6-difluorobenzyl)-2H-tetrazol-5-yl)benzamide]
0.021 µM | > 30 µM | O=C(Nc1cccc(-c2cn(Cc3ccc(-c4nnc(C(F)F)o4)cc3F)nn2)c1)N1CCOCC1 [compound 47, N-(3-(1-(4-(5-(difluoromethyl)-1,3,4-oxadiazol-2-yl)-2-fluorobenzyl)-1H-1,2,3-triazol-4-yl)phenyl)morpholine-4-carboxamide]
0.021 µM | > 30 µM | Nc1ccc(-c2cn(Cc3ccc(-c4nnc(C(F)F)o4)cc3F)nn2)cn1 [compound 48, 5-(1-(4-(5-(difluoromethyl)-1,3,4-oxadiazol-2-yl)-2-fluorobenzyl)-1H-1,2,3-triazol-4-yl)pyridin-2-amine]
0.021 µM | > 200 µM | O=C1Nc2ccc(-c3cn(Cc4ccc(-c5nnc(C(F)F)o5)cc4)nn3)cc2C12CCNC2 (stereo not shown) [compound 49, 5-(1-(4-(5-(difluoromethyl)-1,3,4-oxadiazol-2-yl)benzyl)-1H-1,2,3-triazol-4-yl)spiro[indoline-3,3′-pyrrolidin]-2-one]
0.02 µM | 74.9 µM | NCc1ccc(-c2nnn(Cc3ccc(-c4nnc(C(F)F)o4)cc3)n2)cc1 [compound 43, (4-(2-(4-(5-(difluoromethyl)-1,3,4-oxadiazol-2-yl)benzyl)-2H-tetrazol-5-yl)phenyl)methanamine]
0.02 µM | > 200 µM | Nc1ccc(-c2nnn(Cc3c(F)cc(-c4nnc(C(F)F)o4)cc3F)n2)cn1 [compound 45, 5-(2-(4-(5-(difluoromethyl)-1,3,4-oxadiazol-2-yl)-2,6-difluorobenzyl)-2H-tetrazol-5-yl)pyridin-2-amine]
0.019 µM | > 200 µM | O=C1NCc2ccc(-c3nnn(Cc4ccc(-c5nnc(C(F)F)o5)cc4F)n3)cc21 [compound 40, 6-(2-(4-(5-(difluoromethyl)-1,3,4-oxadiazol-2-yl)-2-fluorobenzyl)-2H-tetrazol-5-yl)isoindolin-1-one]
0.019 µM | > 200 µM | Nc1ccc(-c2cn(Cc3c(F)cc(-c4nnc(C(F)F)o4)cc3F)nn2)cn1 [compound 42, 5-(1-(4-(5-(difluoromethyl)-1,3,4-oxadiazol-2-yl)-2,6-difluorobenzyl)-1H-1,2,3-triazol-4-yl)pyridin-2-amine]
0.016 µM | > 200 µM | Nc1cc(-c2nnn(Cc3ccc(-c4nnc(C(F)F)o4)cc3)n2)ccc1O [compound 35, 2-amino-4-(2-(4-(5-(difluoromethyl)-1,3,4-oxadiazol-2-yl)benzyl)-2H-tetrazol-5-yl)phenol]
0.014 µM | > 200 µM | CN(C)C(=O)Nc1cc(-c2nnn(Cc3ccc(-c4nnc(C(F)F)o4)cc3)n2)ccc1O [compound 31, 3-(5-(2-(4-(5-(difluoromethyl)-1,3,4-oxadiazol-2-yl)benzyl)-2H-tetrazol-5-yl)-2-hydroxyphenyl)-1,1-dimethylurea]
0.009 µM | > 200 µM | O=C1Nc2ccc(-c3nnn(Cc4ccc(-c5nnc(C(F)F)o5)cn4)n3)cc2NC12CCCC2 [compound 27, 7′-(2-((5-(5-(difluoromethyl)-1,3,4-oxadiazol-2-yl)pyridin-2-yl)methyl)-2H-tetrazol-5-yl)-1′,4′-dihydro-3′H-spiro[cyclopentane-1,2′-quinoxalin]-3′-one]
0.007 µM | > 200 µM | O=C(Nc1cc(-c2nnn(Cc3ccc(-c4nnc(C(F)F)o4)cc3)n2)ccc1O)N1CCOCC1 [compound 25, N-(5-(2-(4-(5-(difluoromethyl)-1,3,4-oxadiazol-2-yl)benzyl)-2H-tetrazol-5-yl)-2-hydroxyphenyl)morpholine-4-carboxamide]
